# Assay results taken from patent US20260199296A1, “AGENT FOR PREVENTING OR AMELIORATING ITCH” (KAO CORPORATION, priority 2022, published 2026).
# Key:
# AD model mice (NC/Nga) [1] = test: Amelioration of pruritus in AD model mice by C3a receptor antagonist (mite allergen ointment-induced); type: in vivo, mouse; conditions: 0.5 mg/mL, 200 μL subcutaneously, three times a week; measured for 3 hours after last administration; FIG. 7
# Experimental: Seven-week-old female NC/Nga mice were used. Preparation of AD model mice: The back of the neck was shaved, and 100 mg of an ointment containing mite allergen: Biostir AD (Biostir Inc.) was applied to the back of the neck and auricular region under isoflurane anesthesia for initial sensitization. Four days after the first application of the ointment containing mite allergen, 150 μL of 4% (w/v) SDS solution and 100 mg of ointment containing mite allergen were applied to the back of the neck and auricular region under isoflurane anesthesia. Thereafter, the same procedure was performed four times at a frequency of once every 3 to 4 days to induce AD-like dermatitis.
# The compound 1, whose C3a receptor antagonism was confirmed in Example 1 above, was used as a C3a receptor antagonist. The compound 1 was dissolved in saline containing 20% polyethylene glycol 400, of which 200 μL was administered subcutaneously to the back of the neck. The control group was administered the same amount of only the above solvent. The concentration of the C3a receptor antagonist solution was set at 0.5 mg/mL. […]
# Four days after the last application of the ointment containing mite allergen, the scratching behavior was measured for 3 hours after the last administration of the sample. […]
# human C3a receptor = molecular target: T1, human C3a receptor (Homo sapiens, UniProt Q16581); test: Ca2+-flux assay in HEK293 cells expressing human C3a receptor and GNA16; type: cell-based; conditions: ligands mouse TLQP-21 1 μM or human C3a recombinant protein 300 nM, Fluo-4, HEK293, FIG. 1
# T1 construct: host or cells: HEK293
# T1 sequence (Q16581 1-482): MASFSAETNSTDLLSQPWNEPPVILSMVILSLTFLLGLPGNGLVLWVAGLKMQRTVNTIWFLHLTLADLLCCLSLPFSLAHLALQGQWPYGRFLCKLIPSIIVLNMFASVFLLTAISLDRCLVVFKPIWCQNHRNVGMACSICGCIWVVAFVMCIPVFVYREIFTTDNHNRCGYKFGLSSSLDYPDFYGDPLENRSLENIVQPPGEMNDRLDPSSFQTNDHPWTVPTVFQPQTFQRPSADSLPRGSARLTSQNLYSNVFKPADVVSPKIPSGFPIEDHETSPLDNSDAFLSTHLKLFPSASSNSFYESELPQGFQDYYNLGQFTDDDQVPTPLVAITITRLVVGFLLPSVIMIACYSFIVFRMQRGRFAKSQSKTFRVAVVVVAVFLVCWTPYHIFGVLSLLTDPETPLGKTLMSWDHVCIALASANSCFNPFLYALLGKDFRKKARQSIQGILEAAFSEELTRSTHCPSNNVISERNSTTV
# Text: Mouse TLQP-21 (Tocris Bioscience, sequence: TLOPPASSRRRHFHHALPPAR, the same applies hereinafter) and human C3a recombinant protein (R&D systems) were used. The solvent was HBSS (Gibco).
# The compound 1 (L-arginine, N2-[[5-(diphenylmethyl)-2-thienyl]carbonyl]) synthesized in accordance with a previous report (Rowley, J. A. et al. Journal of Medicinal Chemistry, 2020; 63 (2): 529-541) and ozanimod (Cayman Chemical) were used as C3a receptor antagonists. In the following evaluation, the compound 1 and ozanimod were dissolved in DMSO and diluted with HBSS as appropriate.
# Human Embryonic Kidney cells 293 (HEK293) were used, into which the expression vectors necessary for evaluation were introduced according to the following. […]
# The cells for evaluating C3a receptor response described above were seeded in a BioCoat (Registered Trademark) Poly-D-Lysine 96-well Black Flat Bottom Microplate (CORNING). […] After 15 minutes, C3a receptor ligand solution (mouse TLQP-21 solution or human C3a recombinant protein solution) was added for C3a receptor stimulation, and the Ca^2+ influx associated with the stimulation was measured over time as intracellular fluorescence intensity (Ex: 480 nm, Em: 540 nm). The value obtained by subtracting the measured value when HBSS was added instead of the C3a receptor ligand solution (blank) was used as the measured value. […]
# [2] = tested on: AEW model mice (C57BL/6J); test: Amelioration of pruritus in AEW model mice by C3a receptor antagonist; type: in vivo, mouse; conditions: 0.5 mg/mL, 200 μL subcutaneously, once daily for 8 days; measured for 3 hours after last administration; FIG. 8
# Text: The animals used were male C57BL/6J mice. Preparation of AEW model: The back of the neck was shaved, and absorbent cotton soaked with a 1:1 (v/v) mixture of acetone and diethyl ether was applied and allowed to stand for 15 seconds. Immediately thereafter, absorbent cotton soaked with water was applied for 30 seconds. This treatment was repeated twice/day (morning and evening) for 7 days.
# The compound 1, whose C3a receptor antagonism was confirmed in Example 1 above, was used as a C3a receptor antagonist. The compound 1 was dissolved in saline containing 20% polyethylene glycol 400, of which 200 μL was administered subcutaneously to the back of the neck. The control group was administered the same amount of only the above solvent. The concentration of the C3a receptor antagonist solution was set at 0.5 mg/mL. Sample administration started after the first AEW treatment and was performed at a frequency of once daily for 8 days.
# Sixteen hours after the last AEW treatment, the scratching behavior was measured for 3 hours after the last administration of the sample. MicroAct (Neuroscience) was used to measure the scratching behavior.
# [3] = tested on: ANIT model mice (C57BL/6J); test: Amelioration of pruritus in model mice of pruritus associated with cholestasis (ANIT model) by ozanimod; type: in vivo, mouse; conditions: oral, 3 mg/mL suspension at 10 mL/kg; measurement time 22 hours; FIG. 10
# Experimental: Shaved male C57BL/6J mice were used. To eight-week-old C57BL/6J mice, α-naphthyl isothiocyanate (ANIT) dissolved in olive oil (FUJIFILM Wako Pure Chemical) was orally administered once daily for 10 days with an oral gavage needle for mice and a disposable syringe. Before administration, body weight was measured to ensure administration at 25 mg/10 mL/kg (ANIT model).
# (§1) Ozanimod (Selleck Biotech) was used. Carboxymethyl cellulose (Maruishi Pharmaceutical Co., Ltd.) prepared at 0.5% with water for injection was used as a solvent. The weighed ozanimod was lightly crushed using an agate pestle, and then the solvent dropwise addition and mixing were repeated to obtain a suspension (3 mg/mL). The preparation was done on the day of administration and stored at room temperature until administration.
# The dosage (10 mL/kg) was calculated by measuring body weight, and the prepared evaluation samples were administered orally with an oral gavage needle for mice and a disposable syringe.
# (§2) MicroAct (Neuroscience) was used to measure the scratching behavior. […] Measurements were made on the day before (before administration) and on the day of administration (after administration) of ozanimod, and the antipruritic effect of ozanimod was evaluated by comparing the number of scratching behaviors before and after administration.
# AD model mice (NC/Nga) [4] = test: Amelioration of pruritus in AD model mice by ozanimod (fur mite-parasitized NC/Nga); type: in vivo, mouse; conditions: oral, 3 mg/mL suspension at 10 ml/kg; measurement time 22 hours; FIG. 9
# Experimental: NC/Nga mice were parasitized with mouse fur mites (M. musculi) to spontaneously generate dermatitis, and were used as an AD model. Fourteen-week-old males having developed dermatitis were used. After one week of acclimation, the back of their necks was shaved and their scratching behavior was measured. The mice were divided into two groups of eight mice each to ensure an equal number of scratching behaviors.
# as §1
# The dosage (10 ml/kg) was calculated by measuring body weight, and the prepared evaluation samples were administered orally with an oral gavage needle for mice and a disposable syringe.
# as §2
fluorescence intensity due to C3a receptor stimulation by C3a receptor ligands (integrated value vs control = 100%) (human C3a receptor; compound at 1 μM),fluorescence intensity due to C3a receptor stimulation by C3a receptor ligands (integrated value vs control = 100%) (human C3a receptor; compound at 10 μM),SMILES,scratching behavior compared to AD model mice administered with solvent alone (AD model mice (NC/Nga) [1]),scratching behavior compared to AEW model mice administered with solvent alone [2],scratching behavior (events) after vs before administration [3],scratching behavior (events) after vs before administration (AD model mice (NC/Nga) [4])
suppressed,,"N=C(N)NCCC[C@H](NC(=O)c1ccc(C(c2ccccc2)c2ccccc2)s1)C(=O)O [compound 1, L-arginine, N2-[[5-(diphenylmethyl)-2-thienyl]carbonyl]]",significant decrease,significant decrease,,
,suppressed,"CC(C)Oc1ccc(-c2nc(-c3cccc4c3CCC4NCCO)no2)cc1C#N (stereo not drawn) [ozanimod, 5-[3-[1-(2-hydroxyethylamino)-2,3-dihydro-1H-inden-4-yl]-1,2,4-oxadiazol-5-yl]-2-isopropoxybenzonitrile]",,,significant decrease,significant decrease
